The subject of test [1] is isolated guinea pig tracheas. Nature of the test: Effect on isolated guinea pig tracheas (histamine-induced contraction). It counts as cell-based. As to conditions: for EC50: Cavia porcellus, spirally cut trachea, Krebs Henseleit solution, 37° C., histamine as agonist, read-out: EC50 (amount required to reduce the histamine-induced contraction of the guinea pig trachea by 50%). Here is the method:
B Effect on isolated guinea pig tracheas
Guinea pigs were killed by a blow on the back of the neck and the tracheas were excised, cut spirally and suspended in Krebs Henseleit solution at 37° C. and aerated with 95% O2 +5% CO2. Histamine was used as the agonist.

The subject of test [2] is histamine-induced bronchoconstriction. In words: Effects on histamine-induced bronchoconstriction in anaesthetised guinea pigs. It counts as in vivo, guinea pig. As to conditions: for ED50: Cavia porcellus, iv, male anaesthetised guinea pigs, administered via cannulated left jugular vein immediately before histamine, read-out: ED50 (effective dose required to reduce the histamine-induced constriction in lung air volume by 50%); for antagonising the bronchoconstricting activity of histamine: anaesthetised guinea pigs, result in words. Here is the method: A. Effects on histamine-induced bronchoconstriction in anaesthetised guinea pigs
Male guinea pigs weighing 300-400 grams, after overnight starving, were anaesthetised with intraperitoneal administration of 0.7 ml/100 g of urethane. The preparation was as described by Konsett et al [Arch. exp. Path. Pharmakol. […] (1940), p. 71] with a ventilatory pump stroke volume varying between 4 to 6 ml of air (adjusted for each animal) at a stroke rate of 80 per minute to maintain a lung inflation pressure of 7.5 cm of H2 O. Blood pressure was measured via a cannula in the right carotid artery connected to a Statham blood pressure transducer and a Devices M2 recorder. The test compounds were administered via the cannulated left jugular vein and washed in with 0.1 ml of 0.9% w/w sodium chloride in distilled water. The test product was administered immediately before the histamine which was used as the agonist.
Respiratory changes were recorded via a differential transducer connected to an SE 905 transducer/converter which in turn was connected to a Devices M2 recorder. The results given in Table I show the effective dose of each of the test compounds required to reduce the histamine-induced constriction in lung air volume by 50%.

Values after ≈ are worked out from the molar mass of the structure shown. Where a name gives a salt, the structure may show the parent alone.

Take `O=c1c2ccccc2nc2n(CCCCN3CCN(c4cccc(Cl)c4)CC3)cnn12` [1 and 2]: the “antagonistic effect, persistence” value in test [1] (isolated guinea pig trachea, after compound washed out, result in words) is given as “very prolonged”. The “time for which antagonistic effect could be demonstrated after the compound had been washed out” value in test [1] (isolated guinea pig trachea, after wash-out) is given as “up to 30 minutes”. Besides, the “antagonist of histamine induced contractions” value in test [1] (isolated guinea pig trachea, result in words) was “potent antagonist”.

On to `O=c1c2ccccc2nc2n(CCCCN3CCN(c4cccc(Cl)c4)CC3)cnn12` [Example 1 & 2, 1-{4-[4-(m-chlorophenyl)-piperazin-1-yl]-butyl}-triazolo-[1,2,4][5,1-b]-quinazolin-5(1H)-one dihydrochloride], for which, in test [2], the ED50 (usually the dose at which the effect has come halfway, by size or by number of responders) worked out at 0.02 mg/kg and the “antagonising the bronchoconstricting activity of histamine” value is on record as “very effective”. The EC50 – broadly, the concentration needed to bring the measured effect to its halfway point – in test [1] amounted to 0.1 µg/mL.

For `CCOC(=O)N1CCN(CCCCn2cnn3c(=O)c4cc(C)ccc4nc23)CC1` [Example 3, 1-{4-[4-(ethoxycarbonyl)-piperazin-1-yl]-butyl}-7-methyl[1,2,4] triazolo [5,1-b]-quinazolin-5(1H)-one dihydrochloride], in test [2], the ED50 amounted to 0.008 mg/kg and the “antagonising the bronchoconstricting activity of histamine” value was “very effective”.

For the compound `O=c1c2ccccc2nc2n(CCCCN3CCC(O)(c4ccccc4)CC3)cnn12` [Example 4], in test [2], the ED50 came to 0.3 mg/kg. Further, the EC50 in test [1] was found to be 34 µg/mL (≈ 81.4 µM).

Regarding `O=c1c2ccccc2nc2n(CCCCN3CCN(C4CCCCC4)CC3)cnn12` [Example 5], the ED50 in test [2] is 0.9 mg/kg. Moreover, the EC50 in test [1] stood at 10.2 µg/mL (≈ 25 µM).

Turning to `O=c1c2ccccc2nc2n(CCCN3CCN(c4cccc(Cl)c4)CC3)cnn12` [Example 6], the ED50 in test [2] was determined as 0.03 mg/kg. For the same compound, the EC50 in test [1] was 0.25 µg/mL (≈ 0.591 µM).

Turning to `O=c1c2ccccc2nc2n(CCCN3CCCCC3)cnn12` [Example 7], the ED50 in test [2] was 0.3 mg/kg. Also, the EC50 in test [1] was 15 µg/mL (≈ 48.2 µM).

Turning to `O=c1c2ccccc2nc2n(CCCN3CCC(O)(c4ccccc4)CC3)cnn12` [Example 8], the ED50 in test [2] was 2 mg/kg.

In the case of `O=c1c2cc([N+](=O)[O-])ccc2nc2n(CCCCN3CCN(c4cccc(Cl)c4)CC3)cnn12` [Example 10], in test [2], the ED50 amounted to 0.1 mg/kg.

With `O=c1c2ccccc2nc2n(CCCCCN3CCN(c4cccc(Cl)c4)CC3)cnn12` [Example 11], in test [2], the ED50 stood at 0.05 mg/kg.

Turning to `O=c1c2ccccc2nc2n(CCCCCN3CCCCC3)cnn12` [Example 12], the ED50 in test [2] amounted to 1 mg/kg. Also, in test [1], the EC50 came out at 16 µg/mL (≈ 47.1 µM).

`CCOC(=O)N1CCN(CCCCn2cnn3c(=O)c4ccccc4nc23)CC1` [Example 15, 1-{4-[4-(ethoxycarbonyl)-piperazin-1-yl]-butyl}-[1,2,4]-triazolo-[5,1-b]-quinazolin-5-(1H)-one]: the ED50 in test [2] was 0.05 mg/kg.

With `O=c1c2ccccc2nc2n(CCCCN3CCCCC3)cnn12` [Example 24], the ED50 in test [2] came to 0.7 mg/kg. Besides, in test [1], the EC50 is 36 µg/mL (≈ 111 µM).

Regarding `CCOC(=O)N1CCN(CCCn2cnn3c(=O)c4cc(C)ccc4nc23)CC1` [Example 34, 1-{3-[4-(ethoxycarbonyl)-piperazin-1-yl]-propyl}-7-methyl-[1,2,4]-triazolo-[5,1-b]-quinazolin-5-(1H)-one], the ED50 in test [2] is 0.01 mg/kg.

The values are drawn from patent US4350695A, “Antihistaminic and bronchospasmolytic triazoloquinazolinones” (Roussel Uclaf, priority 1980, dated 1982).
